From patent publication US20250152612A1, “POLYPEPTIDE COUPLED BORON CARRYING AGENT, PREPARATION METHOD THEREFOR, AND PHARMACEUTICAL FORMULATION” (Peking University, priority 2021, published 2025)

Experiments:
[1] = test system: HS683 cells; details: 12 hours incubation; B content per 10^6 cells; FIG. 4
Protocol: (§1) 0.2 mg/g. 0.4 mg/g. 0.6 mg/g and 0.8 mg/g, added to U87MG, U251, A375, A549, HS683 and Hep cell lines cultured in 25 T petri dishes, respectively, and incubated in a thermostatic incubator for 12 hours. Subsequently, the cells and culture medium were separated, and the number of cells was determined. After digesting the cells with concentrated nitric acid, the B content in the cells was determined by ICP-AES.
(§2) Meanwhile, the BPA was formulated into aqueous solutions of 0.1 mg/g, 0.2 mg/g, 0.4 mg/g, 0.6 mg/g, and 0.8 mg/g, added into U87MG, U251, A375, A549, HS683 and Hep cell lines cultured in 25 T petri dishes, respectively, and incubated in a thermostatic incubator for 12 hours. Subsequently, the cells and culture medium were separated, and the number of cells was determined. After digesting the cells with concentrated nitric acid, the B content in the cells was determined by ICP-AES.
(§3) The […] is 249.772 nm. After determination, the B content contained in every 10^6 cells can be calculated and plotted in FIG. 4.

[2] = test system: A375 cells; details: 12 hours incubation; B content per 10^6 cells; FIG. 4
Protocol: as §1, §2, §3

N-4-carboxyphenylboronic acid amide-arginine-lysine-lysine-lysine-arginine-arginine-glutamine-arginine-arginine-arginine [compound 2]
uptake in cerebral glioma HS683 cells compared with BPA [1]: significantly higher than BPA
uptake in A375 cells compared with BPA [2]: significantly higher than BPA
